From patent US20110144125A1, “Anti-Arrhythmia Agents, Methods of Their Use, Methods of Their Identification and Kits Therefore” (THE UAB RESEARCH FOUNDATION, priority 2008, published 2011)
Structures can show the parent of a compound that is named as a salt.

Columns and labels:
rat left atria = assay: Spontaneous tachycardic activity (STA) in isolated rat left atria exposed to 2-APB under increased calcium load
Experimental: Male Sprague-Dawley rats (325-400 g) were anesthetized with intra-peritoneal pentobarbital (0.1 g/kg). Their right and left atria were isolated, superfused at 30° C. in Krebs-Henseleit buffer, and nearly isometric forces of contraction were measured from these muscles (Wolkowicz et al., 2002). 2-APB was prepared as a 150 mM dimethyl sulfoxide stock.
Left atria (n=8 per group) were paced at 3 Hz and (i) titrated with 0 to 30 nM isoproterenol (Ahlquist, 1970) or (ii) exposed to 3 μM forskolin (Laurenza et al., 1980). Left atrial force and frequency of contraction, the time to peak tension and relaxation times were recorded after a 3-5 min exposure to forskolin or to any concentration of isoproterenol. The 3 Hz pacing stimulus was interrupted at the end of these protocols to measure SMEs.
(§1) Left atria (n=10 per group) were paced at 0.1 Hz and treated with (i) 20 μM 2-APB for 10 min, (ii) with 30 nM isoproterenol for 5 min followed by 20 μM 2-APB for 10 min, and (iii) with 3 μM forskolin for 5 min followed by 20 μM 2-APB for 10 min.
Left atrial contraction and relaxation times were recorded at these five times, the pacing stimulus was stopped and rates of SMA were recorded. To determine whether initial pacing rate affects left atrial response to 2-APB and isoproterenol, left atria (n=5-7 per group) were paced at 3 Hz and (i) remained untreated for 15 min, (ii) were treated with 20 μM 2-APB alone for 10 min, or (ii) were treated with 30 nM isoproterenol for 5 min followed by 20 μM 2-APB for 10 min. Atrial mechanical function was measured at these four times; the pacing stimulus then was stopped and rates of SMA were recorded.
Left atria (n=6 per group) were paced at 3 Hz, titrated with 0 to 300 nM (−)BayK 8644 ([…]-1,4-Dihydro-2,6-dimethyl-5-nitro-4-[2-(trifluormethyl)phenyl]-3-pyridinecarboxylic acid methyl ester; Franckowiak et al. 1985) or FPL-64176 ((2,5-Dimethyl-4-[2-(phenylmethyl)benzoyl]-111-pyrrole-3-carboxylic acid methyl ester; Zheng et al., 1991) and their mechanical function and rates of SMA were recorded after a 5 min exposure to any concentration of slow calcium channel activator.
Left atria (n=8 per group) were paced at 0.1 Hz, exposed to 300 nM BayK 8644 or FPL-64176 for 5 min followed by 20 μM 2-APB for 10 min. Atrial mechanical function was recorded at this time; the pacing stimulus then was stopped and rates of SMA were recorded.
To test whether ryanodine receptor calcium leak produces SMA, left atria (n=6 per group) were paced at 0.1 Hz, treated with 0 or 300 nM BayK 8644 for 5 min, and then exposed to 600 nM ryanodine (Sutko et al., 1997). Atrial mechanical function and rates of SMA were recorded 20 min after exposure to ryanodine.
Rates of SMA were measured 5 min later.
Left atria (n=7) were paced at 3 Hz, treated with 120 μM ouabain (Illanes and Marshall, 1964), and any change in mechanical function was recorded at a new steady state, ˜10 min later. These atria were exposed to 20 μM 2-APB and their mechanical function and rates of SMA were recorded 10 min later.
3 Hz-paced left atria (n=9 per group) were superfused (i) in Krebs-Henseleit alone or (ii) they were treated with 20 μM 2-APB for 10 min, (iii) with 300 nM BayK 8644 for 10 min and with 20 μM 2-APB for 10 min, or (iv) they were treated with 300 nM BayK 8644 and 20 μM 2-APB for 10 min, then with 70 μM zatebradine (3-[3-[[2-(3,4-Dimethoxyphenyl)ethyl]methylamino] propyl]-1,3,4,5-tetrahydro-7,8,-dimethoxy-2H-3-benzazepin-2-one hydrochloride) for 10 min (Baruscotti et al., 2005). Pacing was interrupted at these times and rates of SMA were recorded.

[1] = tested on: rat left atrial appendage; assay: 2-APB-induced spontaneous mechanical activity (SMA/SMEs) in isolated superfused rat left atria / left atrial appendage; conditions: for effect on sporadic ectopic activity (SMA): 2-APB-treated appendages, known anti-arrhythmic agents, lidocaine data not shown; for prevention of electromechanical instability in model of abnormal automaticity (FIG. 6): polyphenol then 2-APB; for concentration at which SMA is reduced (reversal): recorded ˜10 min after addition; for time to reversal of SMA after exposure: 20 μM 2-APB-induced SMA
Experimental: Left atria were isolated from male Sprague-Dawley rats (325 to 400 g) under IP pentobarbital anesthesia (0.1 g/kg). Isolated left atria were superfused at 30° C. in Krebs-Henseleit (KH) buffer of the following mM composition: NaCl, 118; NaHCO3, 27; KCl, 4.8; MgSO4, 1.2; KH2PO4, 1.0; CaCl2, 1.8; and glucose, 11.1. Nearly isometric left atrial forces of contraction were measured as described.
Isolated superfused left atria were paced at 3 Hz. 2-APB was added to atrial superfusates from 0.015 or 0.15M DMSO stock solutions to achieve concentrations of 0, 2, 7.5, 15, or 22 μM (n=5 to 10 atria per concentration). Changes in atrial mechanical force were recorded during a subsequent 15 min superfusion.
Two groups of 5 to 6, 3 Hz paced atria were superfused in KH and exposed to 0 or 15 μM 2-APB for 10 min. The pacing stimulus was interrupted for 5 min and the number of spontaneous mechanical events (SMEs), defined as increases in mechanical force occurring in the absence of pacing, were measured as was the postrest potentiation response (PRP).
To determine whether diastolic interval affected the interaction between 2-APB and left atria, atrial pacing was decreased to 0.1 Hz, and 0, 7.5, or 22 μM 2-APB was added to the superfusate (n=6-8 per group). Superfusions continued for 15 min, and changes in atrial mechanical function were observed.
To establish whether SMA was reversible, atria (n=7) were paced at 0.1 Hz, exposed to 15 μM 2-APB for 10 min, and washed with KH. The effect of removing 2-APB on atrial mechanical function was recorded.
To test whether an anion transport inhibitor affected SMA, atria (n=7) were paced at 0.1 Hz in KH and exposed to 15 μM 2-APB. Following the appearance of SMA, they were titrated with 100 to 400 μM DIDS for 3 to 5 min at each concentration. Whether SMA occurred at the end of each titration period was recorded.
as §1
The appendages then were titrated with increasing concentrations of 2-APB, and SMA was measured and recorded.
(§2) To determine the anti-arrhythmic activity of gossypol, isolated rat left atrial appendage and right ventricular muscle strips were used as model systems, as described above. Heart muscle was exposed to 20 μM 2-APB for 10 min to induce SMA, and rates of SMA were recorded as a percentage of initial SMA. The muscles then were titrated with up to 5 increasing concentrations of gossypol. Rates of SMA were recorded ˜10 min after the addition of concentration of the polyphenol.
To determine whether EGCG can prevent arrhythmia, rat left atrial appendages (n=9) were exposed to 20 μM 2-APB and rates of SMA were recorded. Groups of muscles (n=6 per) were pre-treated with 30 μM EGCG for 10 min following which they were exposed to 2-APB. Rates of SMA were recorded 10 min later.
as §2, with “whether EGCG is effective to reverse arrhythmia,” for “the anti-arrhythmic activity of gossypol,”, “Rat left atrial appendages were” for “Heart muscle was”, “left atrial appendages” for “muscles”, “the following polyphenols: EGCG, gossypol, resveratrol, and quercetin.” for “gossypol.”
To determine whether EGC can prevent arrhythmia, left atrial appendages (n=9) were exposed to 20 μM 2-APB and rates of SMA were recorded. Groups of appendages (n=6 per) were pre-treated with 30 μM EGC for 10 min following which they were exposed to 2-APB.

[2] = pre-treated with 30 μM for 10 min, then 20 μM 2-APB for 10 min
[3] = 20 μM 2-APB for 10 min, then titration

C=C[C@@]1(C)CC(=O)[C@]2(O)[C@@]3(C)[C@@H](O)CCC(C)(C)[C@@H]3[C@H](O)[C@H](OC(C)=O)[C@@]2(C)O1 [forskolin]
rate of STA (SMA frequency) in presence of 2-APB and calcium loading agent (rat left atria; 20 μM 2-APB plus 30 nM isoproterenol, 3 μM forskolin, 300 nM BayK 8644, 300 nM FPL-64176 or 120 μM ouabain, absence of pacing, 30° C.): 231±5 contractions/min

COc1ccccc1OCC(O)CN1CCN(CC(=O)Nc2c(C)cccc2C)CC1 (stereo not shown) [ranolazine]
effect on sporadic ectopic activity (SMA) [1]: prevent the sporadic ectopic activity
effect on tachycardic activity (STA) (rat left atria; high calcium loads, 2-APB and 300 nM (−)BayK 8644, 80 μM ranolazine): suppresses, but does not completely prevent

COc1ccc(CCCOC(Cn2ccnc2)c2ccc(OC)cc2)cc1 (stereo not shown) [SKF-96365, 1-[2-(4-Methoxyphenyl)-2-[3-(4-methoxyphenyl)propoxy]ethyl-1H-imidazole hydrochloride]
prevention and reversal of SMA ([1]; data not shown): prevents and reverse SMA
reversal of STA (rat left atria; 0.1 Hz-paced, BayK 8644 and 2-APB, ˜50 μM SKF-96365): STA was suppressed
IC50 (rat left atria; Rattus norvegicus, BayK 8644 and 2-APB, read-out: IC50 for reversal of STA): ~15 µM
prevention of STA (rat left atria; data not shown): prevents STA

2-methoxy antimycin A [2MAA]
SMEs in 2MAA-treated appendages ([1]; pre-treated with 80 μM 2MAA, 15 μM 2-APB): none

O=c1c(O)c(-c2ccc(O)c(O)c2)oc2cc(O)cc(O)c12 [quercetin, 2-(3,4-dihydroxyphenyl)-3,5,7-trihydroxy-4H-chromen-4-one]
prevention of electromechanical instability in model of abnormal automaticity (FIG. 6) [1]: prevent the electromechanical instability
SMEs after pre-treatment (prevention of SMA) [1, 2]: no SMEs

O=C(O[C@H]1Cc2c(O)cc(O)cc2O[C@H]1c1cc(O)c(O)c(O)c1)c1cc(O)c(O)c(O)c1 [EGCG, (−)-cis-2-(3,4,5-Trihydroxyphenyl)-3,4-dihydro-1(2H)-benzopyran-3,5,7-triol 3-gallate]
concentration at which SMA is reduced (reversal) [1, 3]: ≥ 20 µM
reversal of SMA ([1]; 20 μM 2-APB, unpaced, 40 μM EGCG added to the muscle bath): SMA ceased
time to reversal of SMA after exposure [1]: ≤ 10 min
prevention of electromechanical instability in model of abnormal automaticity (FIG. 6) [1]: prevent the electromechanical instability
SMEs after pre-treatment (prevention of SMA) [1, 2]: no SMEs

Oc1cc(O)c2c(c1)O[C@@H](c1cc(O)c(O)c(O)c1)[C@@H](O)C2 [EGC, (−)-cis-2-(3,4,5-trihydroxyphenyl)-3,4-dihydro-1(2H)-benzopyran-3,5,7-triol]
prevention of electromechanical instability in model of abnormal automaticity (FIG. 6) [1]: prevent the electromechanical instability
SMEs after pre-treatment (prevention of SMA) [1, 2]: no SMEs

Cc1cc2c(C(C)C)c(O)c(O)c(C=O)c2c(O)c1-c1c(C)cc2c(C(C)C)c(O)c(O)c(C=O)c2c1O [gossypol, 7-(8-formyl-1,6,7-trihydroxy-3-methyl-5-propan-2-ylnaphthalen-2-yl)-2,3,8-trihydroxy-6-methyl-4-propan-2-ylnaphthalene-1-carbaldehyde]
concentration at which SMA dropped to zero (reversal) [1, 3]: ≥ 20 µM
concentration at which SMA is reduced (reversal) [1, 3]: ≥ 10 µM
time to reversal of SMA after exposure [1]: ≤ 10 min
prevention of electromechanical instability in model of abnormal automaticity (FIG. 6) [1]: prevent the electromechanical instability

O=C(NCC1CCCCN1)c1cc(OCC(F)(F)F)ccc1OCC(F)(F)F (stereo not shown) [flecainide]
effect on sporadic ectopic activity (SMA) [1]: suppress this arrhythmic activity
effect on sporadic ectopic activity (SMA) ([1]; listed as Flecainide): suppresses SMA

CCN(CC)CC(=O)Nc1c(C)cccc1C [lidocaine]
effect on sporadic ectopic activity (SMA) [1]: suppress this arrhythmic activity

CCOC(=O)C1=C(N)Oc2ccc(Br)cc2C1C(C#N)C(=O)OCC (stereo not shown) [HA14-1, ethyl 2-amino-6-bromo-4-(1-cyano-2-ethoxy-2-oxoethyl)-4H-chromene-3-carboxylate]
effect on SMA when added after 2-APB (reversal) ([1]; HA14-1 added 10 min after exposure to 2-APB): no effect on SMA
SMEs after pre-treatment (prevention of SMA) ([1]; pre-treated with 30 μM HA14-1, 2-APB 15 μM and above, vs untreated appendages): significantly fewer SMEs

Oc1ccc(C=Cc2cc(O)cc(O)c2)cc1 [resveratrol, 5-[2-(4-hydroxyphenyl)ethenyl]benzene-1,3-diol]
prevention of electromechanical instability in model of abnormal automaticity (FIG. 6) [1]: prevent the electromechanical instability
SMEs after pre-treatment (prevention of SMA) [1, 2]: no SMEs
